± gives the expanded uncertainty stated by the source.
What was measured:
[1] = Liquid, Manometric method
[2] = refractive index (Na D-line) (dimensionless); conditions: 298.15 K; 101.33 kPa; Liquid; Standard Abbe refractometry

Structure (SMILES) | vapor or sublimation pressure ([1]; 343.15 K) [kPa] | vapor or sublimation pressure ([1]; 353.15 K) [kPa] | vapor or sublimation pressure ([1]; 363.15 K) [kPa] | refractive index [2]
C[N+](=O)[O-] [nitromethane] | 34.93 ± 0.31 | 50.14 ± 0.41 | 70.81 ± 0.53 | 1.3794 ± 0.0009
CC[N+](=O)[O-] [nitroethane] | 22.46 ± 0.23 | 32.84 ± 0.29 | 47.13 ± 0.37 | 1.3898 ± 0.0009
ClCCCCl [1,3-dichloropropane] | 18.31 ± 0.19 | 26.84 ± 0.22 | 38.65 ± 0.27 | 1.4462 ± 0.0008

From the NIST ThermoML archive (doi:10.1021/je200651r)
